Common to all, as to type: cell-based
The test system of data set [1] is Escherichia coli nfsB (NfsB) or human cytochrome P450 reductase (CYPOR). Briefly: Multiplexed reporter detection with compounds 11 and 13 in MDA-231 WT, NfsB and CYPOR cells (fluorescence microscopy). Particulars: fluorescent microscope images, MDA-231 WT/NfsB/CYPOR. The source says:
Compounds 11 and 13 (as representative nitro-substituted aromatic compounds of the present invention) were utilized to exemplify the ability to detect individual cell populations. […] When the data were collated it was evident that the fluorescent output of each cell population could be identified with minimal interference from the other reductases-generated fluorescent molecules. […] To establish the single cell specificity of compounds 11 and 13 for detection of activities in a mixed (co-cultured) cell population, cells were examined by fluorescent microscopy following concurrent exposure to compounds 11 and 13. MDA-231 wild-type cells or cells expressing Escherichia coli nfsB and human cytochrome P450 reductase were mixed 1:1:1, seeded onto glass coverslips (15,000 cells/well in 0.1 mL αMEM+10% FCS+P/S) and allowed to attach overnight. Compound 11 and 13 were diluted into αMEM (from DMSO stock solutions) and 0.1 mL was added to achieve a final concentration of 10 μM and 100 μM respectively. Samples were incubated at 37° C. for 45 minutes, washed three times in PBS and images were acquired on a Nikon TE-2000 inverted fluorescence microscope. […] This illustrates that multiple independent outputs can be recorded from a single sample providing appropriate excitation and emission wavelengths are utilized. […]

The target of data set [2] is T1, E. coli nitroreductase (nfsB) (Escherichia coli, UniProt P38489).
T1 construct: expressed in transfected cells; host or cells: MDA231 (MDA-231) human breast cancer cell line, clonal derivative MDA231 NTR
Nature of the data set: Entrapment of fluorescent products within nitroreductase expressing HCT116 cells. Particulars: washed; for cellular retention of fluorescence in nitroreductase expressing but not parental HCT116 cells: 10 μM for 1.5 hr, 6 hours post-exposure. The procedure: The human colorectal cancer cell line (HCT116^WT) and a clonal derivative (HCT116^NTR) engineered to express the reporter gene E. coli nitroreductase (nfsB) under the control of a constitutive promoter were seeded onto glass coverslips at an equal density (50:50). Cells were equilibrated to 37° C., 5% CO2, and compound 1 and 13 was added to a final concentration of 100 μM for 1 hr. Cells were washed free of compound after 1 hour and fluorescence was monitored as a function of time (FIG. 8).
In further screening (FIG. 9), the human colorectal cancer cell line (HCT116^WT) and a clonal derivative (HCT116^NTR) engineered to express the reporter gene E. coli nitroreductase (nfsB) under the control of a constitutive promoter were seeded separately into a 96-well glass plate. Cells were equilibrated to 37° C., 5% CO2, and compounds were added to a final concentration of 10 μM for 1.5 hr. Cells were washed free of compound and fluorescence was monitored 6 hours post-exposure. […] The image has been rendered monochromatic for the purposes of publication quality.

The target of data set [3] is T2, Escherichia coli nfsB (NfsB) (Escherichia coli, UniProt P38489).
T2 construct: expressed in transfected cells; host or cells: MDA231 (MDA-231) human breast cancer cell line, clonal derivative MDA231 NTR
Briefly: Multiplexed reporter detection with compounds 4 and 16 in MDA-231 cells expressing nfsB. Here is the method:
(§1) Compounds 4 and 16 (as representative nitro-substituted aromatic compounds of the present invention) were utilized to exemplify the ability to detect individual cell populations. […] 30,000 cells were seeded into a plastic 96-well plate in a volume of 0.1 mL. After 2 h attachment samples were incubated with either 200 μM 16 or 100 μM 4 by dilution of DMSO stock solutions into culture medium and addition of 0.1 mL directly into wells. Plates were incubated for 4 h before being read on a fluorescent platereader at Ex/Em 355/460 and 485/535. Values represent the fluorescence in the presence of cells—blank (fluorescence in the absence of cells). When the data were collated it was evident that the fluorescent output of each cell population could be identified with minimal interference from the other reductases-generated fluorescent molecules. […] To establish the single cell specificity of compounds 4 and 16 for detection of activities in a mixed (co-cultured) cell population, cells were examined by fluorescent microscopy following concurrent exposure to compounds 4 and 16. […] Samples were incubated at 37° C. for 45 minutes, washed three times in PBS and images were acquired on a Nikon TE-2000 inverted fluorescence microscope. […]

The target of data set [4] is T3, human cytochrome P450 reductase (CYPOR) (Homo sapiens, UniProt P16435).
T3 construct: expressed in transfected cells; host or cells: MDA231 (MDA-231) human breast cancer cell line, clonal derivative MDA231 P450R
T3 sequence (P16435 1-677): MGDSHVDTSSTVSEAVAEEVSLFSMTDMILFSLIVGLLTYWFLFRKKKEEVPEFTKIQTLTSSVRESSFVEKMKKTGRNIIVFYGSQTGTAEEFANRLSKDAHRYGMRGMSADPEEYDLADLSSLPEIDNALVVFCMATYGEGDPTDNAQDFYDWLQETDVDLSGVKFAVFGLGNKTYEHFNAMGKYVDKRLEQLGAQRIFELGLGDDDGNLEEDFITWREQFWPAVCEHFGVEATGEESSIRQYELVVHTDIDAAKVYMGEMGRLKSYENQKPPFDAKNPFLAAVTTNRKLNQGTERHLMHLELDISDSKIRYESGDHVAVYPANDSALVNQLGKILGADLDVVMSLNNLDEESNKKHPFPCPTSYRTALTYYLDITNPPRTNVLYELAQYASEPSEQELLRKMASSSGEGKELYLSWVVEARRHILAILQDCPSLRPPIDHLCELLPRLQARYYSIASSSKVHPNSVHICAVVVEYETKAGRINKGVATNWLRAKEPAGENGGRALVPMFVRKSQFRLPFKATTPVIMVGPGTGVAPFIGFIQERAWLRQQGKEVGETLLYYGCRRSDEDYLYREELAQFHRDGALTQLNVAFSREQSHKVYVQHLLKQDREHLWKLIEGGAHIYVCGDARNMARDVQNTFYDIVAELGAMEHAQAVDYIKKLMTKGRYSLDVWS
Nature of the data set: Multiplexed reporter detection with compounds 4 and 16 in MDA-231 cells expressing CYPOR. Here is the method: as §1

T1 sequence (P38489 whole entry): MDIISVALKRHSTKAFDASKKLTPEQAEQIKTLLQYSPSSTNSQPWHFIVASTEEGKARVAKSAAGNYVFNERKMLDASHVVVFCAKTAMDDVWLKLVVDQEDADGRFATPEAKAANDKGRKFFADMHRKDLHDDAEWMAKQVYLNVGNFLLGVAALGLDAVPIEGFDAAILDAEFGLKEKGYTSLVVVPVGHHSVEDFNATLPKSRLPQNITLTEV
T2 sequence (P38489 whole entry): as above

With `CN(C)CCCCN1C(=O)c2cccc3cc([N+](=O)[O-])cc(c23)C1=O` [Compound 11, 2-[4-(Dimethylamino)butyl]-5-nitro-1H-benzo[de]isoquinoline-1,3(2H)-dione], the “fluorescent output at Ex/Em 485/535 detecting nfsB and CYPOR enzyme activities” value in data set [1] is given as “gave fluorescent output”.

On to `COC(=O)Cn1ccc(=O)c2cc([N+](=O)[O-])ccc21` [Compound 13, Methyl (6-nitro-4-oxo-1(4H)-quinolinyl)acetate], for which the “cellular retention of fluorescence in nitroreductase expressing but not parental HCT116 cells” value in data set [2] is “possessing cellular retention properties”. For the same molecule, the “retention of fluorescence in cells after wash” value in data set [2] (HCT116 WT:HCT116 NTR 50:50 co-culture, 100 μM for 1 hr, by 4 hours) was “still retained”. The “fluorescent output at Ex/Em 355/460 detecting nfsB and CYPOR enzyme activities” value in data set [1] is “gave fluorescent output”.

With `CN(C)CCNC(=O)c1cc([N+](=O)[O-])cc2c(=O)c3ccccc3[nH]c12` [Compound 4, N-[2-(Dimethylamino)ethyl]-2-nitro-9-oxo-9,10-dihydro-4-acridinecarboxamide], in data set [2], the “cellular retention of fluorescence in nitroreductase expressing but not parental HCT116 cells” value is given as “possessing cellular retention properties”. Further, in data set [3] (100 μM, 4 h, platereader, MDA-231 WT/NfsB/CYPOR), the “fluorescent output at Ex/Em 485/535 detecting Escherichia coli nfsB activity” value is “gave fluorescent output”.

With `CN(C)CCCNc1ncnc2cccc([N+](=O)[O-])c12` [Compound 16, N^1,N^1-dimethyl-N^3-(5-nitro-4-quinazolinyl)-1,3-propanediamine], the “fluorescent output at Ex/Em 355/460 detecting human CYPOR activity” value in data set [4] (200 μM, 4 h, platereader, MDA-231 WT/NfsB/CYPOR) is “gave fluorescent output”. Further, the “fluorescent emission colour on co-registration image (DAPI filter set)” value in data set [4] (nfsB and CYPOR cells mixed 1:1, 300 μM, 45 minutes, microscopy) is “blue”.

For `CN(C)CCCOc1ccnc2cc([N+](=O)[O-])ccc12` [Compound 14, N,N-dimethyl-3-[(7-nitro-4-quinolinyl)oxy]-1-propanamine], in data set [2], the “cellular retention of fluorescence in nitroreductase expressing but not parental HCT116 cells” value is “possessing cellular retention properties”. The “fluorescent emission colour on co-registration image (FITC filter set)” value in data set [3] (nfsB and CYPOR cells mixed 1:1, 10 μM, 45 minutes, microscopy) is “green”.

The values above are taken from patent publication US20100173332A1, “Method for the Fluorescent Detection of Nitroreductase Activity Using Nitro-Substituted Aromatic Compounds” (Auckland Uniservices Limited, priority 2006, published 2010).
